Reference: BigSolDB 2.1

Nc1nc(NC2CC2)c2ncn([C@H]3C=C[C@@H](CO)C3)c2n1
solubility (mole fraction)
Conditions | 278.15 K | 283.15 K | 288.15 K | 293.15 K | 298.15 K | 303.15 K | 308.15 K | 313.15 K | 318.15 K | 323.15 K
in acetone | 0.00115 | 0.00123 | 0.00131 | 0.00142 | 0.00155 | 0.00169 | 0.00183 | 0.00205 | 0.00225 | 0.00247
in ethanol | 0.00601 | 0.00651 | 0.00716 | 0.00803 | 0.00903 | 0.0104 | 0.0123 | 0.0142 | 0.0162 | 0.0184
in ethyl acetate | 0.000631 | 0.000705 | 0.000796 | 0.000906 | 0.00102 | 0.00112 | 0.00127 | 0.00147 | 0.00168 | 0.00192
in isobutanol | 0.00772 | 0.00823 | 0.00896 | 0.0101 | 0.0113 | 0.0121 | 0.0131 | 0.0144 | 0.0164 | 0.0182
in isopropanol | 0.00451 | 0.00483 | 0.00534 | 0.006 | 0.00655 | 0.00744 | 0.00855 | 0.0096 | 0.0111 | 0.0123
in methanol | 0.00623 | 0.00688 | 0.00825 | 0.00965 | 0.0109 | 0.0126 | 0.0147 | 0.0181 | 0.0209 | 0.0241
in methyl acetate | 0.000901 | 0.00101 | 0.0011 | 0.00123 | 0.0014 | 0.00156 | 0.00176 | 0.00206 | 0.0023 | 0.0026
in n-butanol | 0.00718 | 0.00798 | 0.0089 | 0.0103 | 0.0117 | 0.0133 | 0.0155 | 0.0177 | 0.0204 | 0.0231
in n-pentanol | 0.00898 | 0.0106 | 0.012 | 0.0134 | 0.0153 | 0.0169 | 0.0195 | 0.0226 | 0.0248 | 0.0277
in n-propanol | 0.00798 | 0.0087 | 0.00952 | 0.0107 | 0.0119 | 0.0136 | 0.0159 | 0.0184 | 0.0211 | 0.024
in sec-butanol | 0.00768 | 0.00844 | 0.00927 | 0.0104 | 0.0118 | 0.0134 | 0.015 | 0.0172 | 0.0197 | 0.0222
in water | 0.000239 | 0.000266 | 0.000295 | 0.000334 | 0.000386 | 0.000436 | 0.0005 | 0.000547 | 0.000649 | 0.000748
